Counter-ions that a name gives are not always drawn. Like-named read-outs stand apart in the source and are kept apart here.
Assays:
[1] = test system: epididymal spermatozoa; test: Capacitation analysis, chlorotetracycline (CTC) assay; format: cell-based, mouse; conditions: for number of capacitated sperm: FIG. 6, P<0.001; for % capacitated sperm: mean ± SEM
Excerpt: Tissue sections were examined by immunohistochemistry (IHC) using a specific anti-PDE11 antibody. KO mice were generated using standard techniques, and PDE11 ablation confirmed by Southern blotting as well as reverse transcriptase polymerase chain reaction (RT-PCR) and IHC analysis of the testis. Fresh epididymal sperm were collected from adult mice and tested for capacitation (CP) using a chlorotetracycline assay before and after treatment with ATP—an inducer of CP.
For capacitation analyses, fresh epididymal spermatozoa were collected from adult (16 week-old) mice into Tyrodes media, and tested in triplicate using a chlorotetracycline (CTC) assay (Fraser, L. R. & Herod, J. E. Expression of capacitation-dependent changes in chlortetracycline fluorescence patterns in mouse spermatozoa requires a suitable glycolysable substrate. J. Reprod. Fert., 1990; 88(2): 611-21) both ± pre-treatment with ATP—an inducer of capacitation—to determine the functional state of the spermatozoa.
[…] The extent of capacitation was measured using chlorotetracycline (CTC), 750 μM for 15 min at 37° C. The patterns of CTC fluorescence were observed under microscopy (Reference: Fraser L R et al., 1990, J. Reprod. Fert.—see above). Patterns reflected the functional state of spermatozoa, i.e. capacitated, uncapacitated and acrosome loss.

[2] = target: T1, PDE6 (Bos taurus, UniProt P11541+P23439); test: PDE6 inhibition, SPA-based cGMP hydrolysis assay; format: biochemical; conditions: PDE6 isolated from bovine retina; geometric mean of at least 3 determinations
T1 construct: PDE6 was isolated from bovine retina; from tissue; host or cells: bovine retina
T1 sequence (P11541 2-856 limits assumed): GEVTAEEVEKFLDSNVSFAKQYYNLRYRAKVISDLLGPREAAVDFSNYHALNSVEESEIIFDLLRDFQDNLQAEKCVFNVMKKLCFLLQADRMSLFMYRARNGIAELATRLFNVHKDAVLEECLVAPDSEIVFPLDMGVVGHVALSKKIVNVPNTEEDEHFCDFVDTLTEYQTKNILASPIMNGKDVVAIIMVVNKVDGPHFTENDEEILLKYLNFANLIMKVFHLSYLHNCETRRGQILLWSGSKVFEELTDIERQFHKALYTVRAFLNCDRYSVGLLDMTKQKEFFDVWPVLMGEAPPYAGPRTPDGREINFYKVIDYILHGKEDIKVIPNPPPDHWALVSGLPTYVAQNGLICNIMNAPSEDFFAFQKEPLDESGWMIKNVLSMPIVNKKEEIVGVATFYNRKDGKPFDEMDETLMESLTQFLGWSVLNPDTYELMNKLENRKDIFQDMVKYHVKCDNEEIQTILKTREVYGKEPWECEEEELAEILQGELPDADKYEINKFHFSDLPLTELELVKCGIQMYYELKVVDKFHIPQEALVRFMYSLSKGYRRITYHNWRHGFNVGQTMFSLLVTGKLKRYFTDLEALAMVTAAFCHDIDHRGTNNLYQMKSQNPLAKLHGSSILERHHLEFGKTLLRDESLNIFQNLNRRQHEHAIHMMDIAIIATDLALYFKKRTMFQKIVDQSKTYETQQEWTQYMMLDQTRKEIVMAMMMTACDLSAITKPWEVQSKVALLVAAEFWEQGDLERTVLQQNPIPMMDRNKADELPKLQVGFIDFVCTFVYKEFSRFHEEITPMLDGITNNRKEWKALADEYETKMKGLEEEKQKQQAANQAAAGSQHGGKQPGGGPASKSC
T1 sequence (P23439 2-850 limits assumed): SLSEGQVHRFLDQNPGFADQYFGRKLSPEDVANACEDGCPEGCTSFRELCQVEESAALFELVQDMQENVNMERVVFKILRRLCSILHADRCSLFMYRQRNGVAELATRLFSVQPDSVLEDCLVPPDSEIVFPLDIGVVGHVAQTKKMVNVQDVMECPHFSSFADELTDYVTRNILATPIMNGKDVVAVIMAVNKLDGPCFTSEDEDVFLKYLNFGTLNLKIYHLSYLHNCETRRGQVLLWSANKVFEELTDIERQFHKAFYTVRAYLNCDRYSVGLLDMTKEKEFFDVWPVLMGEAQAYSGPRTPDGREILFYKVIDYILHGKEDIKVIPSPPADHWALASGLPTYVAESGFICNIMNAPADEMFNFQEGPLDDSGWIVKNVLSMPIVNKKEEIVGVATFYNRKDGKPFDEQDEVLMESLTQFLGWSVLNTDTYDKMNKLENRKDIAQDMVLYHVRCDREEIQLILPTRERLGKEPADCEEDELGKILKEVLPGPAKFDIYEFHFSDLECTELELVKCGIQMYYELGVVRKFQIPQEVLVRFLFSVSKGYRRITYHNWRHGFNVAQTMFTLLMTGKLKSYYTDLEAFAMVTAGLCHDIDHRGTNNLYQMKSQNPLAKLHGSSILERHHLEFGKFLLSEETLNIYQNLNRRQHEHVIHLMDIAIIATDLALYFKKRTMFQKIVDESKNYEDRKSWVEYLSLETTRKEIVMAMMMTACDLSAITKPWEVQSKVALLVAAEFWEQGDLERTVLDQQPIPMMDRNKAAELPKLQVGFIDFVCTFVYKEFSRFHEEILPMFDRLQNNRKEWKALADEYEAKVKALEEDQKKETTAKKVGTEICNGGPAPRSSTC

[3] = target: T2, recombinant human PDE9 (Homo sapiens, UniProt O76083); test: PDE9 inhibition, SPA-based assay; format: biochemical; conditions: Sf9 cells, geometric mean of at least 3 determinations
T2 construct: made in house; host or cells: Sf9 insect cells (baculovirus)

[4] = target: T3, recombinant human PDE7 (Homo sapiens, UniProt Q13946); test: PDE7 inhibition, SPA-based assay; format: biochemical; conditions: Sf9 cells, geometric mean of at least 3 determinations
T3 construct: made in house; host or cells: Sf9 insect cells (baculovirus)

[5] = target: recombinant human PDE10 (Homo sapiens, UniProt Q9Y233); test: PDE10 inhibition, SPA-based assay; format: biochemical; conditions: Sf9 cells, geometric mean of at least 3 determinations
[6] = target: T4, recombinant human PDE8 (Homo sapiens, UniProt O60658); test: PDE8 inhibition, SPA-based assay; format: biochemical; conditions: Sf9 cells, geometric mean of at least 3 determinations
T4 construct: made in house; host or cells: Sf9 insect cells (baculovirus)

[7] = target: T5, recombinant human PDE11A (Homo sapiens, UniProt Q9HCR9); test: PDE11A inhibition, SPA-based cGMP hydrolysis assay; format: biochemical
T5 construct: made in house; host or cells: Sf9 insect cells (baculovirus)

[8] = target: T5, recombinant human PDE11A; conditions: substrate hydrolysis by recombinant human PDE11A; cited from earlier work

recombinant human PDE10, sequence (Q9Y233 290-1055 limits assumed): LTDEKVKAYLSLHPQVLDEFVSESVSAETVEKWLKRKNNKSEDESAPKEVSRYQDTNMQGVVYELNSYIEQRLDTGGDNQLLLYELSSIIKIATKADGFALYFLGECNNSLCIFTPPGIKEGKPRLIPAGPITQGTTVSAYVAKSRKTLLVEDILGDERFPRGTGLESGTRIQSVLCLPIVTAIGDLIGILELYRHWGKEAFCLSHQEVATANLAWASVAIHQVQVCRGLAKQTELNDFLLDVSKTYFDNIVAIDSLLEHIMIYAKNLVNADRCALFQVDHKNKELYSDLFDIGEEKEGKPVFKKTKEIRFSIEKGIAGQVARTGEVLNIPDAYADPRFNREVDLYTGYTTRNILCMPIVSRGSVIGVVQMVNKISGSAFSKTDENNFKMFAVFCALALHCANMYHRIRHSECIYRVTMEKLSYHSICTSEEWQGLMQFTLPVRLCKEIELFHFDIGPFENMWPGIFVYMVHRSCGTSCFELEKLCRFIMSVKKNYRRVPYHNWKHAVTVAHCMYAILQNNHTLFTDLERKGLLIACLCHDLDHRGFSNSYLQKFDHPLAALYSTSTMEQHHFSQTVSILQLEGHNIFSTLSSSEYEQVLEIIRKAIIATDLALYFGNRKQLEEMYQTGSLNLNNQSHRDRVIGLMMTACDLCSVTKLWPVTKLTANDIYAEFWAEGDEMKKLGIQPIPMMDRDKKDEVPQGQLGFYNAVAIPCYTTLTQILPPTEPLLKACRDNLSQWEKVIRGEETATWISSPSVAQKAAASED
T5 sequence (Q9HCR9 445-933): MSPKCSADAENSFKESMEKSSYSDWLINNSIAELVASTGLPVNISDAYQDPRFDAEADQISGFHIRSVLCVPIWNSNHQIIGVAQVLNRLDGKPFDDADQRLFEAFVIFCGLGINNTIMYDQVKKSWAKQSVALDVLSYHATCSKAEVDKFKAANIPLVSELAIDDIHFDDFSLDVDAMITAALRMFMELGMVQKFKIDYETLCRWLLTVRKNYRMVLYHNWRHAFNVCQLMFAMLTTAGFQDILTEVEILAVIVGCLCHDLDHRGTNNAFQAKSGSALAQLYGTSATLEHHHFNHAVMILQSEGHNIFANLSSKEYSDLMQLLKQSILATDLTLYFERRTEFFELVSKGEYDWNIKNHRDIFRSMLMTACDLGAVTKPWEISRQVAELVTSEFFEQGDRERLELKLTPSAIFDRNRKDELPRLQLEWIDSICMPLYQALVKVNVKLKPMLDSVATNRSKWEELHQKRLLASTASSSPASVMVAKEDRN
T3 sequence (Q13946 whole entry): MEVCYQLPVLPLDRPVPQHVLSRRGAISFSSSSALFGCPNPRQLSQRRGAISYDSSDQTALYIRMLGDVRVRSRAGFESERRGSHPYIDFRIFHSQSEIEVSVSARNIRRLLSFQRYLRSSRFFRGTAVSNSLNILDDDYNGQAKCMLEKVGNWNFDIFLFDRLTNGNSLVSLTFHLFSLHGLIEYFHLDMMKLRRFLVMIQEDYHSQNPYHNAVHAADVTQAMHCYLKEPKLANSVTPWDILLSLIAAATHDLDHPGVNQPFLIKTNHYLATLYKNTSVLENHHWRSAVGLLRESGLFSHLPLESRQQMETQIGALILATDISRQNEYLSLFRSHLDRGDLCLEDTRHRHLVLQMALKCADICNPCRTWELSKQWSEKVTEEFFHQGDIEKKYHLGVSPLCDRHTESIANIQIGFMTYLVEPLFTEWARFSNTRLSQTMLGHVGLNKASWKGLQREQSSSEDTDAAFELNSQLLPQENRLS
T2 sequence (O76083 whole entry): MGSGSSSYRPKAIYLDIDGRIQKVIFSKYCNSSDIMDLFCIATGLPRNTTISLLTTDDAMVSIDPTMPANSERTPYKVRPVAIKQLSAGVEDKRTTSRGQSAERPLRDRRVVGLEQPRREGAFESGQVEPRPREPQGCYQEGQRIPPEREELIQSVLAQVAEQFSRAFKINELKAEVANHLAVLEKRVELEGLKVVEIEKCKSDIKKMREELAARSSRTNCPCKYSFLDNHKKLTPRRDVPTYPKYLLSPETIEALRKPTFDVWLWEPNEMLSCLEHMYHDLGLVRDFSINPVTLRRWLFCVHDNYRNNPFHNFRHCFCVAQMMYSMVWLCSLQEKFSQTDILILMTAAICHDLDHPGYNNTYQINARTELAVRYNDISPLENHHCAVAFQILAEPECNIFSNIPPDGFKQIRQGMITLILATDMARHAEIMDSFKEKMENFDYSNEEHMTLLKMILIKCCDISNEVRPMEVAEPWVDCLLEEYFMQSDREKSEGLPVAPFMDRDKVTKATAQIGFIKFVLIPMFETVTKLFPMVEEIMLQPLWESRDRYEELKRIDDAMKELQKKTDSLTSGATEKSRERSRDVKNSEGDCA
T4 sequence (O60658 whole entry): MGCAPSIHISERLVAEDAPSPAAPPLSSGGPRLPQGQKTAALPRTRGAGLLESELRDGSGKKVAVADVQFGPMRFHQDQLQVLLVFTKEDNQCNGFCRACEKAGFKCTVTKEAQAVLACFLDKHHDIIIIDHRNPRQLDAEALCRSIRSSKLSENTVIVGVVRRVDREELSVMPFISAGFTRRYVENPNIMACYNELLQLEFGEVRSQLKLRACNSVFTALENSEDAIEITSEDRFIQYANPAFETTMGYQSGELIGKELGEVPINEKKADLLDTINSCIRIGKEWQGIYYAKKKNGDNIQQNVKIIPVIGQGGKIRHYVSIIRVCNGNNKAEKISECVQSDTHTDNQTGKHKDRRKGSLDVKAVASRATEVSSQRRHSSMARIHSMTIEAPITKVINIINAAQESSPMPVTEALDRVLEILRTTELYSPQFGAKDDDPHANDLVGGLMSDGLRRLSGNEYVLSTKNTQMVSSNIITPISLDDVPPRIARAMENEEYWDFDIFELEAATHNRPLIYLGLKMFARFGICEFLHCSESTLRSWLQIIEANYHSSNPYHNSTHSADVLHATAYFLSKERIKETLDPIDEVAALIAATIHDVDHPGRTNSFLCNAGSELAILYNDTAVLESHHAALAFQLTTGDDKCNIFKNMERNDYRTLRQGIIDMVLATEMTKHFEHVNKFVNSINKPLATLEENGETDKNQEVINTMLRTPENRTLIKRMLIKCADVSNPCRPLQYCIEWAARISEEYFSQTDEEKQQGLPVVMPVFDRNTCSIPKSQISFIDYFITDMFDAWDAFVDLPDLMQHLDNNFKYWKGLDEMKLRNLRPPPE

Structure (SMILES)	IC50 [2]	IC50 [3]	IC50 [4]	IC50 [5]	IC50 [6]	also measured
Nc1ncnc2c1ncn2[C@@H]1O[C@H](COP(=O)(O)OP(=O)(O)OP(=O)(O)O)[C@@H](O)[C@H]1O [ATP, adenosine-5′-triphosphate]	–	–	–	–	–	number of capacitated sperm ([1]; ATP 1.0 mM, spermatozoa from PDE11 KO mice only): significantly increased; number of capacitated sperm ([1]; ATP 2.5 mM, all murine spermatozoa samples, 1 hr incubation): significantly increased; number of capacitated murine spermatozoa ([1]; PDE11 knockout and wild type samples, after 1 hr incubation): significantly increased; % capacitated sperm ([1]; Table 2, PDE11 KO (−/−) mice, pre-treatment +1mM ATP, n = 3 animals): 45.9 ± 7.0%; % capacitated sperm ([1]; Table 2, PDE11 KO (−/−) mice, pre-treatment +2.5 mM ATP, n = 3 animals): 73.9 ± 5.6%; % capacitated sperm ([1]; Table 2, Wild-type (+/+) mice, pre-treatment +1mM ATP, n = 3 animals): 41.4 ± 8.2%; % capacitated sperm ([1]; Table 2, Wild-type (+/+) mice, pre-treatment +2.5 mM ATP, n = 3 animals): 73.5 ± 5.1%; % capacitated sperm ([1]; Table 3, PDE11 KO (−/−) mice, pre-treatment +1 mM ATP, n = 4): 48.4 ± 4.0%; % capacitated sperm ([1]; Table 3, PDE11 KO (−/−) mice, pre-treatment +2.5 mM ATP, n = 4): 77.6 ± 3.8%; % capacitated sperm ([1]; Table 3, Wild-type (+/+) mice, pre-treatment +1 mM ATP, n = 4): 47.1 ± 5.1%; % capacitated sperm ([1]; Table 3, Wild-type (+/+) mice, pre-treatment +2.5 mM ATP, n = 4): 78.4 ± 3.3%
O=C(O)C1CCN(c2nc(NCc3ccc4c(c3)OCO4)c3cc(Cl)ccc3n2)CC1 [Compound E4021, 1-[4-[(1,3-benzodioxol-5-ylmethyl)amino]-6-chloro-2-quinazolinyl]-4-piperidinecarboxylic acid, monohydrochloride]	0.0047 µM	> 100 µM	> 100 µM	> 100 µM	> 100 µM	IC50 [7]: 0.572 µM
CN1CC(=O)N2[C@H](c3ccc4c(c3)OCO4)c3[nH]c4ccccc4c3C[C@@H]2C1=O [IC351, (6R,12aR)-6-(1,3-benzodioxol-5-yl)-2,3,6,7,12,12a-hexahydro-2-methyl-pyrazino[1′,2′: 1,6]pyrido[3,4-b]indole-1,4-dione]	1.5 µM	> 100 µM	> 100 µM	> 100 µM	> 100 µM	–
CCCc1nn(C)c2c(=O)[nH]c(-c3cc(S(=O)(=O)N4CCN(C)CC4)ccc3OCC)nc12 [Sildenafil, 5-[2-ethoxy-5-(4-methyl-1-piperazinylsulphonyl)phenyl]-1-methyl-3-n-propyl-1,6-dihydro-7H-pyrazolo[4,3-d]pyrimidin-7-one]	–	–	19.7 µM	–	–	–
Clc1ccc2nc(-n3ccnc3)nc(NCc3ccccc3)c2c1 [UK-235,187, 6-Chloro-2-(1H-imidazol-1-yl)-N-(phenylmethyl)-,4-quinazolinamine, dihydrochloride]	1 µM	> 100 µM	–	> 100 µM	–	IC50 ([7]; recombinant human, Sf9 cells, 69 nM cGMP, geometric mean of at least 3 determinations, read-out: IC50 PDE11A): 0.0466 µM
Nc1nc2c(ncn2[C@@H]2O[C@@H]3COP(=O)(O)O[C@H]3[C@H]2O)c(=O)[nH]1 [cGMP, cyclic guanine 3′,5′-monophosphate]	–	–	–	–	–	Km [8]: 0.52 µM

From patent publication US20030229002A1, “Use of agents that modulate PDE11A activity” (Pfizer Inc., priority 2002, published 2003)
